Values after ≈ are worked out from the molar mass of the structure shown.
How the values were obtained:
[1] = system: sunflower (Helianthus annuus L.) seeds; test: Phytotest 1: phytotoxicity, seed germination and root growth; assay type: in vivo; details: 50 µg/mL; versus water–ethanol 0.5% (v/v) control; <90% inhibition, 90–110% no effect, >110% stimulation
Excerpt: In the experiments with plants, two aspects were taken under consideration: (1) phytotoxicity, which determined the toxicity of the hydrazide–hydrazones on seed germination and root growth, and (2) study on the behavior of seeds in the presence of the tested hydrazide–hydrazones and pathogens producing laccase (B. cinerea and S. sclerotiorum). The non-coated seeds of Linum usitatissimum, Helianthus annuus, and Brassica napus var. napus were provided by the Institute of Soil Science and Plant Cultivation, National Research Institute in Pulawy, Department of Weed Science and Tillage Systems, and Institute of Technology and Life Sciences–National Research Institute Falenty (Poland). Both phytotests were performed based on direct-contact microbiotests following the protocol recommended by the manufacturer (PhytotestkitTM, MicroBio Tests, Mariakerke, Belgium) with the authors’ modifications.
The main phytotest equipment (Tigret, Warsaw, Poland) and general methods are described as follows. Test plates (21 × 15.5 × 0.8 cm) provide optimal moisture and enable observation of seed germination and data reading at the end of the test. A single plate is made of polyvinylchloride and composed of both a transparent bottom and a covering part that are stuck together by a set of press buttons. […] Such prepared wet support was covered with a black filter paper that soaked the solution and was applied for further testing.
In the assay of phytotoxicity (1), the seeds of three dicota plants were used, namely ten seeds of flax or rapeseed and six seeds of sunflower. The seeds were transferred directly on the filter surface by placing them along the line at approximately 1 cm from the ridge at equal distances. Then, the seeds on the filter surface were covered with a covering part and placed in a holder.
All test plates were put vertically in a special incubator to allow free germination and growth of roots at 25 °C through 5 days in the dark. The test was performed in triplicate for each test plant. The results were expressed as the germination index values (GI, Equation (2)) concerning the plant growth controls in water–ethanol solution for (1). […] The GI was calculated from the formula and categorized as an inhibition for GI values < 90%, as stimulation > 110%, and between 90 and 110% as non-toxic/no effect as proposed in the literature. (2) GI,%=Gs×Ls/Gc×Lc×100% where Gs is seed germination (%), Ls is root elongation (mm) for the test plate, and Gc and Lc are corresponding values for the control plates. Gc was calculated as the proportion of germinated seeds in the test in relation to the number of germinated seeds in the control. The control was the representative number of seeds that germinated on a medium with 0.5% (v/v) of ethanol.

[2] = system: Sclerotinia sclerotiorum strain FSc10; test: In vitro antifungal activity, mycelial growth inhibition on PDA medium; assay type: cell-based; details: for fungal growth inhibition, S. sclerotiorum / inhibition of growth at 50 µg/mL: screening at basal 50 µg/mL, PDA medium, mean ± SD of three determinations; for inhibition of growth at 50 µg/mL: read-out: fungal growth inhibition, S. sclerotiorum; for IC50: log-logistic model, 0–50 µg/mL range, read-out: IC50 against Sclerotinia sclerotiorum (Ss)
[3] = system: Botrytis cinerea strain FBc05; test: as above; assay type: cell-based; details: for fungal growth inhibition, B. cinerea / inhibition of growth at 50 µg/mL: screening at basal 50 µg/mL, PDA medium, mean ± SD of three determinations; for inhibition at 6.25 µg/mL / inhibition at 25 µg/mL / inhibition at 50 µg/mL / IC50 / inhibition of growth at 50 µg/mL: Botrytis cinerea, FBC05; for inhibition at 6.25 µg/mL / inhibition at 25 µg/mL / inhibition at 50 µg/mL: fungicidal profile, read-out: B. cinerea inhibition; for IC50: log-logistic model, 0–50 µg/mL range, read-out: IC50 against Botrytis cinerea (Bc); for inhibition of growth at 50 µg/mL: read-out: fungal growth inhibition, B. cinerea
[4] = system: Cerrena unicolor strain no. 139; test: as above; assay type: cell-based; details: for inhibition of growth at 50 µg/mL / inhibition at 50 µg/mL / IC50: Cerrena unicolor, NO.139; for inhibition of growth at 50 µg/mL: read-out: fungal growth inhibition, C. unicolor; for inhibition at 50 µg/mL: fungicidal profile, read-out: C. unicolor inhibition; for IC50: log-logistic model, 0–50 µg/mL range, read-out: IC50 against Cerrena unicolor (Cu)
Summary of the method: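 Compounds in PDA plates (ethanol or DMSO co-solvent, 0.1–1.0% v/v), screened at 50 µg/mL, selected ones at 0–50 µg/mL; 5 mm mycelial plug placed centrally, 22 °C dark until co-solvent control covered (3 d B. cinerea, S. sclerotiorum; 7 d C. unicolor). IC50 from nonlinear dose–response fit, only where growth fell >50%.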

[5] = molecular target: laccase from Trametes versicolor; details: read-out: Laccase inhibition, Ki; cited from earlier work
[6] = screening at basal 50 µg/mL, PDA medium, mean ± SD of three determinations
[7] = Sclerotinia sclerotiorum, FSC10
[8] = Sclerotinia sclerotiorum, FSC10, fungicidal profile, read-out: S. sclerotiorum inhibition

SMILES | Germination index (GI), sunflower, test 1 [1] | fungal growth inhibition, S. sclerotiorum [2] | fungal growth inhibition, B. cinerea [3] | fungal growth inhibition, C. unicolor [4, 6] | inhibition of growth at 50 µg/mL [2, 7] | inhibition of growth at 50 µg/mL [4, 6] | Ki [5] | inhibition at 6.25 µg/mL [2, 8] | inhibition at 12.5 µg/mL [2, 8] | IC50 [2, 7] | inhibition at 6.25 µg/mL [3] | inhibition at 25 µg/mL [3] | inhibition at 50 µg/mL [3] | IC50 [3] | inhibition of growth at 50 µg/mL [3] | inhibition at 50 µg/mL [4] | IC50 [4] | inhibition at 50 µg/mL ([2]; Sclerotinia sclerotiorum, FSC10, fungicidal profile, 50 µg/mL, read-out: S. sclerotiorum inhibition)
O=C(N/N=C/c1cc(O)ccc1O)c1ccc(O)cc1 [compound 13] | 87% | n.o. | n.o. | n.o. |  |  |  |  |  |  |  |  |  |  |  |  |  | 
COc1cc(/C=N/NC(=O)c2ccc(O)cc2)ccc1O [compound 17] |  |  | n.o. |  | 7.3 ± 2.1% | 11.9 ± 0.8% | 251 µM |  |  |  |  |  |  |  |  |  |  | 
CC(C)(C)c1cccc(/C=N/NC(=O)c2ccc(O)cc2)c1O [compound 18] | no effect |  |  |  | 97.1 ± 1.1% | 85.9 ± 2.1% | 24 µM | 70.6 to 87.6% | 96.3% | 1.8 µg/mL (≈ 5.76 µM) | 20.2% | 56.4% | 64.7% | 20 µg/mL (≈ 64 µM) | 82.1 ± 3.1% | 76.5% | 18.3 µg/mL (≈ 58.6 µM) | 
O=C(N/N=C/c1cccc(-c2ccccc2)c1O)c1ccc(O)cc1 [compound 19] | no effect |  |  |  | 50.6 ± 5.5% | 71.4 ± 2.1% | 25.3 µM |  |  | 69.9 µg/mL (≈ 210 µM) | 30.1% | 70.1% | 74.1% | 13.9 µg/mL (≈ 41.8 µM) | 73.5 ± 3.3% | 70.5% | 20.3 µg/mL (≈ 61.1 µM) | 
Cc1cc(/C=N/NC(=O)c2ccc(O)cc2)c(O)c(CO)c1 [compound 25] | non-toxic | n.o. |  |  |  | 70.1 ± 1.8% | ≥ 1000 µM |  |  |  |  |  |  |  | 2.8 ± 1.9% |  |  | 
CC(C)(C)c1cc(/C=N/NC(=O)c2ccc(O)cc2)c(O)c(C(C)(C)C)c1 [compound 27] | 82% |  |  |  | 85.5 ± 3.2% | 42.8 ± 2.2% | 17.9 µM | 82.9% |  | 0.5 µg/mL (≈ 1.36 µM) |  |  |  |  | 23.4 ± 2.7% |  | 2190 µg/mL (≈ 5950 µM) | 93.1%
Cc1cc(/C=N/NC(=O)c2ccc(O)cc2)c(O)c(C(C)(C)C)c1 [compound 30] | 67% |  |  |  | 96.8 ± 2.2% | 89.8 ± 0.4% | 26.4 µM | 70.6 to 87.6% | 98.7% | 0.8 µg/mL (≈ 2.45 µM) |  |  |  | 62.5 µg/mL (≈ 191 µM) | 76.2 ± 2.2% | 90.5% | 13.5 µg/mL (≈ 41.4 µM) | 

Reference: PMC11124341, “4-Hydroxybenzoic Acid-Based Hydrazide–Hydrazones as Potent Growth Inhibition Agents of Laccase-Producing Phytopathogenic Fungi That Are Useful in the Protection of Oilseed Crops” (Molecules, 2024)
